Values after ≈ are worked out from the molar mass of the structure shown.
Key:
Format in all cases: functional
Escherichia coli = test: Compound was tested for antibacterial activity against Escherichia coli 250 UC5 using standard broth microdilution assay.
Streptococcus pneumoniae [1] = test: Compound was tested for antibacterial activity against Streptococcus pneumoniae 030SJ1 EryRc using standard broth microdilution assay.
Haemophilus influenzae = test: Compound was tested for antibacterial activity against Haemophilus influenzae 351HT3 using standard broth microdilution assay.
Streptococcus pneumoniae [2] = test: Compound was tested for antibacterial activity against Streptococcus pneumoniae 032UC1 using standard broth microdilution assay.
Staphylococcus aureus = test: Compound was tested for antibacterial activity against Staphylococcus aureus 011UC4 using standard broth microdilution assay.
Streptococcus pneumoniae [3] = test: Compound was tested for antibacterial activity against Streptococcus pneumoniae 030SJ5i EryRi using standard broth microdilution assay.
Streptococcus pyogenes = test: Compound was tested for antibacterial activity against Streptococcus pyogenes 02A1UC1 using standard broth microdilution assay.

CC[C@H]1OC(=O)[C@H](C)[C@@H](O[C@H]2C[C@@](C)(OC)[C@@H](O)[C@H](C)O2)[C@H](C)[C@@H](O[C@@H]2O[C@H](C)C[C@H](N(C)C)[C@H]2O)[C@](C)(OC)C[C@@H](C)C2=N[C@H](C)[C@@H](O2)[C@]1(C)O
MIC (Escherichia coli): 40 µg/mL (≈ 53.7 µM) | MIC (Streptococcus pneumoniae [1]): 40 µg/mL (≈ 53.7 µM) | MIC (Haemophilus influenzae): 10 µg/mL (≈ 13.4 µM) | MIC (Streptococcus pneumoniae [2]): 40 µg/mL (≈ 53.7 µM) | MIC (Staphylococcus aureus): 20 µg/mL (≈ 26.8 µM) | MIC (Streptococcus pneumoniae [3]): 40 µg/mL (≈ 53.7 µM) | MIC (Streptococcus pyogenes): 40 µg/mL (≈ 53.7 µM)

CC[C@H]1OC(=O)[C@H](C)[C@@H](O[C@H]2C[C@@](C)(OC)[C@@H](O)[C@H](C)O2)[C@H](C)[C@@H](OC2O[C@H](C)C[C@H](N(C)C)[C@H]2O)[C@](C)(OC)C[C@@H](C)C(=O)N[C@H](C)[C@@H](O)[C@]1(C)O (some centres not stated)
MIC (Escherichia coli): 40 µg/mL (≈ 52.4 µM) | MIC (Streptococcus pneumoniae [1]): 40 µg/mL (≈ 52.4 µM) | MIC (Haemophilus influenzae): 2.5 µg/mL (≈ 3.28 µM) | MIC (Streptococcus pneumoniae [2]): 1.2 µg/mL (≈ 1.57 µM) | MIC (Staphylococcus aureus): 1.2 µg/mL (≈ 1.57 µM) | MIC (Streptococcus pneumoniae [3]): 10 µg/mL (≈ 13.1 µM) | MIC (Streptococcus pyogenes): 0.6 µg/mL (≈ 0.786 µM)

CC[C@H]1OC(=O)[C@H](C)[C@@H](O[C@H]2C[C@@](C)(OC)[C@@H](O)[C@H](C)O2)[C@H](C)[C@@H](O[C@@H]2O[C@H](C)C[C@H](N(C)C)[C@H]2O)[C@](C)(OC)C[C@@H](C)CN(C)[C@H](C)[C@@H](O)[C@]1(C)O
MIC (Escherichia coli): 20 µg/mL (≈ 26.2 µM) | MIC (Streptococcus pneumoniae [1]): > 40 µg/mL | MIC (Haemophilus influenzae): 2.5 µg/mL (≈ 3.28 µM) | MIC (Streptococcus pneumoniae [2]): 0.15 µg/mL (≈ 0.197 µM) | MIC (Staphylococcus aureus): 1.2 µg/mL (≈ 1.57 µM) | MIC (Streptococcus pneumoniae [3]): > 40 µg/mL | MIC (Streptococcus pyogenes): 0.15 µg/mL (≈ 0.197 µM)

CC[C@H]1OC(=O)[C@H](C)C(=O)[C@H](C)[C@@H](OC2O[C@H](C)C[C@H](N(C)C)[C@H]2O)[C@](C)(OC)C[C@@H](C)C(=O)[C@H](C)[C@H]2N(CCCCn3cnc(-c4cccnc4)c3)C(=O)O[C@]12C (some centres not stated)
MIC (Escherichia coli): 10 µg/mL (≈ 12.3 µM) | MIC (Streptococcus pneumoniae [1]): 0.02 µg/mL (≈ 0.0246 µM) | MIC (Haemophilus influenzae): 1.2 µg/mL (≈ 1.48 µM) | MIC (Streptococcus pneumoniae [2]): 0.02 µg/mL (≈ 0.0246 µM) | MIC (Staphylococcus aureus): 0.04 µg/mL (≈ 0.0493 µM) | MIC (Streptococcus pneumoniae [3]): 0.02 µg/mL (≈ 0.0246 µM) | MIC (Streptococcus pyogenes): 0.02 µg/mL (≈ 0.0246 µM)

CC[C@H]1OC(=O)[C@H](C)C(=O)[C@H](C)[C@@H](O[C@@H]2O[C@H](C)C[C@H](N(C)C)[C@H]2O)[C@](C)(OC)C[C@@H](C)CN(C)[C@H](C)[C@@H](O)[C@]1(C)O
MIC (Escherichia coli): 40 µg/mL (≈ 66.4 µM) | MIC (Streptococcus pneumoniae [1]): 40 µg/mL (≈ 66.4 µM) | MIC (Haemophilus influenzae): 40 µg/mL (≈ 66.4 µM) | MIC (Streptococcus pneumoniae [2]): 40 µg/mL (≈ 66.4 µM) | MIC (Staphylococcus aureus): 40 µg/mL (≈ 66.4 µM) | MIC (Streptococcus pneumoniae [3]): 40 µg/mL (≈ 66.4 µM) | MIC (Streptococcus pyogenes): 40 µg/mL (≈ 66.4 µM)

CC[C@H]1OC(=O)[C@H](C)[C@@H](O[C@H]2C[C@@](C)(OC)[C@@H](O)[C@H](C)O2)[C@H](C)[C@@H](O[C@@H]2O[C@H](C)C[C@H](N(C)C)[C@H]2O)[C@](C)(O)C[C@@H](C)CN(C)[C@H](C)[C@@H](O)[C@]1(C)O [AZITHROMYCIN]
MIC (Escherichia coli): 20 µg/mL (≈ 26.7 µM) | MIC (Streptococcus pneumoniae [1]): 40 µg/mL (≈ 53.4 µM) | MIC (Haemophilus influenzae): 1.2 µg/mL (≈ 1.6 µM) | MIC (Streptococcus pneumoniae [2]): 0.15 µg/mL (≈ 0.2 µM) | MIC (Staphylococcus aureus): 0.3 µg/mL (≈ 0.401 µM) | MIC (Streptococcus pneumoniae [3]): 40 µg/mL (≈ 53.4 µM) | MIC (Streptococcus pyogenes): 0.6 µg/mL (≈ 0.801 µM)
